{"source": "patent US9050294B2", "about": "“Treatment of neural diseases or conditions” (Royal Institution for the Advancement of Learning/McGill …, priority 2008, dated 2015)", "key": {"microglial cells": {"tested_on": "microglial cells", "assay": "Cell viability and cell de-attachment studies on microglial cells", "format": "cell-based, mouse", "details": "0.625 and 1.25 μM"}, "[1]": {"tested_on": "SOD1^G93A transgenic mice", "assay": "Glial activation in L4 ventral horn (GFAP and Mac-2 immunohistochemistry)", "format": "in vivo, mouse", "details": "L4, 130 days of age; p≦0.05", "method": "(B) For ALS studies: Mice were deeply anaesthetized with a cocktail of ketamine (7.5 mg/ml) and xylazine (0.5 mg/ml) administered via intraperitoneal injection at a dose of 20 ml/kg of body weight. Animals were then sacrificed by transcardial perfusion with 4% paraformaldehyde in 0.1M phosphate buffered saline (PBS). The fourth lumbar spinal cord segment, identified by its contribution to the sciatic nerve was carefully removed, post-fixed for 1 hour in 4% paraformaldehyde solution and cryoprotected overnight in 30% sucrose in 0.1M PBS. […] Images were imported into SigmaScan™ Pro Image Measurement Software Version 5.0.0 (SPSS Inc., Chicago, Ill.) and activated astrocytes and microglia were quantified by exceeding an intensity threshold. […] Serial sections from a separate set were stained for Nissle body detection using cresyl violet staining and the number of motor neurons surviving in the ventral horn were quantified.\nImmunohistochemistry was also performed on different serial sections from the same animals. […] Images of both ventral horns were captured every 300 μm and imported into SigmaScan™ Pro image quantification software. The area occupied by darkly stained cells was quantified and normalized for the total area."}, "[2]": {"tested_on": "spinal cord injury (SCI) in BALB/c mice", "assay": "Locomotor recovery after SCI, Basso Mouse Scale (BMS) open-field test", "format": "in vivo", "method": "(§1) Fenretinide preparation and treatment.\nLocomotor recovery was evaluated in an open-field test using the Basso Mouse Scale (BMS) (Basso et al. (2006) J Neurotrauma 23: 635-659), which was specifically developed for locomotor testing after contusion injuries in mice. The BMS analysis of hindlimb movements and coordination was carried out by two independent trained assessors, and the consensus score taken. The final score is presented as mean±SEM. The BMS is a compressed scale with a maximum score of 9 as compared to the […] BBB scale for rats. Therefore small differences in the BMS can account for larger functional differences."}, "[3]": {"tested_on": "spinal cord injury (SCI) in BALB/c mice", "assay": "AA and DHA levels in plasma and spinal cord after spinal cord contusion (lipid analysis, GC/MS)", "details": "5 mg/kg/day oral", "quoted_text": "Adult (8-10 weeks old) female BALB/c mice (Charles River Canada) were anaesthetized with ketamine:xylazine:acepromazine (50:5:1 mg/kg). After performing a laminectomy at the 11th thoracic vertebrae, the exposed spinal cord was contused using the Infinite™ Horizons Impactor device (Precision Scientific Instrumentation, Lexington, Ky.). Moderate injuries were made using a force of 50 kDynes and tissue displacements ranging between 400-600 μm (Ghasemlou et al. (2005) Exp. Neurol. 196: 9-17).\nFenretinide preparation and treatment. Fenretinide powder was resuspended in 95% ethanol under sterile conditions to generate a 2 μg/μL stock solution. This solution was incorporated into a daily liquid diet of Peptamen™ (Nestle Canada, Brampton, ON) at a dose of 5 mg/kg/day for oral consumption as described previously (Guilbault et al. (2008) Am J Respir Cell Mol Biol 38: 47-56). The suspension was protected from light and kept at 4° C. before treatment of the mice. One hour following surgery and for the subsequent three days, fenretinide was administered by gavage in two doses, each suspended in 300 μL of Peptamen™. Gavage was chosen as the method of drug delivery immediately after surgery due to the loss of appetite and reduced food intake during the first 48 h after injury. After day three, mice were fed the fenretinide/Peptamen™ mixture. At this point mice were separated into individual cages in order to ascertain the amount of food and drug consumed. Following day 3, the diet was administered every morning with careful monitoring of the quantity consumed by each mouse. More specifically, the daily fenretinide dose was incorporated into 12 ml of Peptamen™, which represents 80% of the daily mouse food consumption, to ensure 100% consumption. The food was given to the mice in the mid-morning. The diet for control animals was prepared and administered in the same fashion as the drug treatment; however, control animals received Peptamen™ with no fenretinide added but with an equivalent amount of ethanol.\n(A) For SCI studies: in order to establish plasma kinetics, blood samples were taken from the saphenous vein at day 0, 1, 3, 7, 11, and 21 post-injury. On day 28, blood samples were obtained by intra-cardiac puncture. All blood samples were mixed with 10 μl of EDTA to prevent coagulation and centrifuged at 350×g for 7 minutes at 4° C. The plasma was then removed and lipids were extracted with chloroform-methanol (2:1 vol/vol) containing 1 mM butylated hydroxyanisole (BHA), as previously described (Folch et al. (1957) J Biol Chem 226: 497-509). The lipid fractions were dried under nitrogen and resuspended in heptane as previously described (De Sanctis (1991) Med Sci Res 19: 335-337). Phospholipids were identified by thin layer chromatography extraction. Diazomethane was used to esterify the released fatty acids and the esters were identified by GC/MS (Hewlett Packard 5880A, WCOT) capillary column (Supelco™-10, 35 m×0.5 mm, 1 μm thick) using commercial standards (Sigma-Aldrich, Oakville, ON, Canada). Total levels of DHA and AA as well as phospholipid-bound DHA, phospholipid-bound AA, malonyldialdehyde (MDA) and nitrotyrosine were assessed in both plasma and spinal cord samples."}, "[4]": {"tested_on": "spinal cord injury (SCI) in BALB/c mice", "assay": "Oxidative stress markers (MDA, nitrotyrosine) in spinal cord after SCI, ELISA", "format": "in vivo, mouse", "details": "3 dpi, vs control mice", "source_text": "as §1"}}, "note": "“Also recorded” adds a separate entry of the source."}
{"molecule": "CC1=C(/C=C/C(C)=C/C=C/C(C)=C/C(=O)Nc2ccc(O)cc2)C(C)(C)CCC1", "note": "[fenretinide, all-trans-N-(4-hydroxyphenyl) retinamide]", "values": [{"measurement": "toxic effects on the cells (cell viability, cell de-attachment)", "setting": "microglial cells", "value": "did not have any toxic effects"}, {"measurement": "GFAP staining of ventral horn: sham-treated mice greater than fenretinide-treated", "setting": "[1]", "value": "more than 50%"}, {"measurement": "Mac-2 positive stained area: control animals more than fenretinide-treated", "setting": "[1]", "value": 60, "unit": "%"}, {"measurement": "BMS score", "setting": "[2]; 5 mg/kg/day oral started 1 h after SCI, 28 dpi, 9-point scale, vehicle 4.6", "value": 5.8}, {"measurement": "mean BMS subscore higher than vehicle-treated mice", "setting": "[2]; 5 mg/kg/day oral, 28 dpi", "value": 2.2, "unit": "points"}, {"measurement": "fine locomotor skills (BMS subscores) vs vehicle", "setting": "[2]; 5 mg/kg/day oral, day 7 to 28 after SCI", "value": "significant improvement"}, {"measurement": "locomotor function (BMS) vs vehicle-treated mice", "setting": "[2]; 5 mg/kg/day oral, significant from day 7 after SCI", "value": "improved locomotor function; also recorded: significantly enhanced motor skills"}, {"measurement": "plasma docosahexaenoic acid (DHA) levels vs vehicle-treated mice", "setting": "[3]; started 1 h after SCI, 3 to 28 dpi", "value": "concomitant increase; also recorded: significantly higher"}, {"measurement": "plasma arachidonic acid (AA) levels vs vehicle-treated mice", "setting": "[3]; started 1 h after SCI, day 1 to 28 after SCI", "value": "significant reduction"}, {"measurement": "AA level in injured spinal cord vs vehicle", "setting": "[3]; 3 dpi", "value": "significant decrease"}, {"measurement": "DHA level in injured spinal cord vs vehicle", "setting": "[3]; 3 dpi", "value": "increase"}, {"measurement": "decrease of malonyldialdehyde (MDA) level in spinal cord", "setting": "[4]", "value": "about 2 fold"}, {"measurement": "decrease of nitrotyrosine level in spinal cord", "setting": "[4]", "value": "about 2 fold"}]}
